Results as given in patent US20110028719A1, “SCREENING METHODS FOR AMYLOID BETA MODULATORS” (priority 2006, published 2011).
Like-named read-outs stand apart in the source and are kept apart here.

Target: immobilized Aβ fibrils (Homo sapiens, UniProt P05067)
Assay: FAC-MS assay of free Aβ monomer (indicator) binding to immobilized Aβ fibrils in the presence of test compounds
[1] = FAC-MS screen, shift of free Aβ monomer breakthrough on immobilized Aβ fibrils in presence of compound, scale not given

Chain of immobilized Aβ fibrils (P05067 672-713 limits assumed): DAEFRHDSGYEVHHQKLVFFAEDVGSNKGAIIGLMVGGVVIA

Row | SMILES | Aβ Shift [1] | also measured
1 | Cc1ccc[n+](CC(=O)OC2CC(C)CCC2C(C)C)c1 (centres unmarked) | 1 | 
2 | CC1C2CC3(C)CC(C(=O)O)(C2)CC1(C)C3 (centres unmarked) | 1 | 
3 | CC1C(C(=O)Nc2ccccc2)CCCC1(C)C(=O)O (centres unmarked) | 1 | 
4 | CCCNC(=O)C12CC3(C)CC(C)(CC(C)(C3)C1)C2 | 1 | 
5 | CC(C)NC(=O)C12CC3(C)CC(C)(CC(C)(C3)C1)C2 | 1 | 
6 | CC1CC(NC(=O)c2nc[nH]n2)CC(C)(C)C1 (centres unmarked) | 1 | 
7 | CC12CC3CC(C)(C1)CC(C(=O)N1CCOCC1)(C3)C2 | 1 | 
8 | COC(=O)C12CCC(C)(C(O)C1)C2(C)C (centres unmarked) | 1 | 
9 | CC1CCC(COC(=O)CN2CCOCC2)C(C)C1 (centres unmarked) | 1 | 
10 | CC12CC3(C)CC(C)(C1)CC(NC(=O)NC(C)(C)C)(C2)C3 | 1 | 
11 | CC1CCC(C(C)C)C(OC(=O)c2ccccc2N)C1 (centres unmarked) |  | Aβ Shift: 1
12 | CC12CC3(C)CC(C)(C1)CC(NC(=O)N1CCCC1)(C2)C3 | 1 | 
13 | COCCNC(=O)NC12CC3(C)CC(C)(CC(C)(C3)C1)C2 | 1 | 
14 | CNC(=O)C12CC3(C)CC(C)(CC(C)(C3)C1)C2 | 1 | 
15 | COC(=O)CNC(=O)C12CC3(C)CC(C)(CC(C)(C3)C1)C2 | 1 | 
16 | CC1(C(=O)O)CC(C)(C(=O)O)CC(C)(C(=O)O)C1 (centres unmarked) | 1 | 
17 | CC1CCN(C(=O)C23CC4CC(C)(CC(C)(C4)C2)C3)CC1 | 1 | 
18 | CC12CC3CC(C)(C1)CC(C(=O)NC1=NCCS1)(C3)C2 | 1 | 
19 | CC12CC3(C)CC(C)(C1)CC(C(=O)NCC(=O)O)(C2)C3 | 1 | 
20 | CC1CCC(N(CCCN)Cc2ccco2)CC1C (centres unmarked) | 1 | 
21 | OCC1CC(Cl)CC(Cl)C1O (centres unmarked) | 0 | 
22 | O=C1OC2C3CC([C@@H]2I)[C@@H](CO)C13 (some centres unmarked) | 0 | 

Row | SMILES | Aβ Shift [1] | also measured
23 | NC12C3C4C5C1C2C(Br)(C43)C51OCCO1 (centres unmarked) | 0 | 
24 | CC(O)C12C3C4C5C1C2C(Br)(C43)C51OCCO1 (centres unmarked) | 0 | 
25 | O=S(=O)(c1ccccc1)C1C2CC3C(C2Cl)C31 (centres unmarked) | 0 | 
26 | O=C(O)C1C2C(=O)OC3C(Cl)C1C1(CC1)C32 (centres unmarked) | 0 | 
27 | BrC1CC2OC2CC1Br (centres unmarked) | 0 | 
28 | COc1ccc(C2(O)C(C)CCCC2C)cc1 (centres unmarked) | 0 | 
29 | CC1CCCC(NC(=O)C2CCCCC2C(=O)O)C1C (centres unmarked) | 0 | 
30 | CC1CCCC(NC(=O)CCC2CCCCC2)C1C (centres unmarked) | 0 | 
31 | CCCCCCCCCC(=O)NC1CCCC(C)C1C (centres unmarked) | 0 | 
32 | CC1CCCC(NC(=O)NC2CCCCC2)C1C (centres unmarked) | 0 | 
33 | CC1CCCC(NC(=O)c2nc[nH]n2)C1C (centres unmarked) | 0 | 
34 | CC1(C)CC(=O)C2=C(C1)CC1(C)CC(C)(C)CC2(O)C1 (centres unmarked) | 0 | 
35 | CC1(C)CC2(C)CC3=C([C@H](CO)C(C)(C)C3)C(CO)(C1)C2 (some centres unmarked) | 0 | 
36 | CC1(C)CC(=O)C2=C(C1)CC1(C)CC(C)(C)CC2(C#N)C1 (centres unmarked) | 0 | 
37 | CC1CC2=C(/C(=N/O)C1)C1(O)CC(C)CC(C)(C2)C1 (centres unmarked) | 0 | 
38 | CC1(C)CC2(C)CC(O)(C1)C13CCC(C)(C)CC1(C2)O3 (centres unmarked) | 0 | 
39 | CC1CC(C(=O)O)CC(C(=O)O)C1 (centres unmarked) | 0 | 
40 | CC(C)(C)C1CC(C(=O)O)CC(C(=O)O)C1 (centres unmarked) | 0 | 
41 | CC1CCN(CC(O)COC2CC(C)CC(C)(C)C2)CC1 (centres unmarked) | 0 | 
42 | CC12CC3(C)CC(C)(C1)CC(C1(C)CC(=O)O1)(C2)C3 (centres unmarked) | 0 | 
43 | CC(=O)NC12CC3(C)CC(C)(CC(C)(C3)C1)C2 | 0 | 
44 | Oc1c(I)cc(Cl)c2cccnc12 |  | Aβ Shift (FAC-MS % shift of free Aβ monomer breakthrough on immobilized Aβ fibrils in presence of the compound (screen, Table 2)): 2
